Measured values reported in patent US12478694B2, “H2O2-responsive crosslinking near-infrared molecular probe for tumor microenvironment and use therefor” (SOOCHOW UNIVERSITY, priority 2019, dated 2025).

Tests used:
[1] = tested on: 4T1; assay: Cytotoxicity of the probe by MTT (thiazole blue) colorimetry; format: cell-based, mouse; details: 4T1 cells
Method: (§1) After diluting the H2O2 responsive NIR molecular probe prepared in Example 1 with methanol to a concentration of 1 μM, an ultraviolet-visible absorption spectrometer and a steady-state/transient fluorescence spectrometer were used to measure the ultraviolet absorption spectrum and fluorescence of the probe. Spectrum: The cytotoxicity of the probe to 4T1 was investigated by MTT (thiazole blue) colorimetry.

[2] = tested on: 4T1 mouse breast cancer tumor in BALB/c/nu female nude mice; assay: NIR fluorescence imaging of the probe at the tumor site in mice; format: in vivo; details: intratumoral injection, 100 μM, 50 μL
Method: BALB/c/nu female nude mice inoculated with 4T1 mouse breast cancer cells were randomly divided into two groups with 5 mice in each group. After the tumor on the right forelimb of the mouse grows up, the probes DATC and TC are injected into the tumors of the two groups of nude mice by intratumoral injection, at a concentration of 100 μM (50 μL/each). Then put the probe-injected mice in the small animal IVIS Lumina XRMS live imaging system to observe the changes in the fluorescence intensity of the probe in the nude mouse tumor over time, and calculate the experimental group probe and the control group through the IVIS live imaging analysis software The fluorescence intensity of the probe at different time points at the tumor site in nude mice.

[3] = tested on: 4T1 cells; assay: Co-localization of intracellular probe and intracellular mitochondria; format: cell-based, mouse; details: 5 μM probe, incubated 12 hours
Method: Based on the method described in Example 2, 4T1 cells were seeded in a confocal small dish with 1.5×10^4 cells per well, placed in an incubator for 24 hours, and then the culture medium was discarded. The H2O2 responsive NIR molecular probe prepared in Example 1 was diluted with a culture medium to a concentration of 5 μM, and then added to a 4T1 cell culture dish, and placed in a cell incubator to incubate for 12 hours. After the probe and 4T1 cell incubation time was over, the cells were incubated with mitochondrial dye and Hoechst 33342 respectively, and the co-localization of the probe with mitochondria in 4T1 cells at the same time was observed using a confocal microscope.

[4] = Ultraviolet absorption spectrum and fluorescence spectrum of the probe; format: physicochemical; details: probe diluted with methanol to 1 μM
Method: as §1

[5] = tested on: 4T1 cells; assay: Retention of the probe in 4T1 cells treated with hydrogen peroxide, confocal fluorescence; format: cell-based, mouse
Method: The 4T1 cells were first treated with 100 μM hydrogen peroxide for 15 min, and then the H2O2 responsive NIR molecular probe DATC prepared in Example 1 was diluted into the cell culture medium, and then added to the 4T1 cell culture dish and incubated (The probe concentration is 5 μM). The sulfhydryl group on the protein in 4T1 cells treated with hydrogen oxide will be oxidized to sulfenic acid. When the probe entered into the tumor cell, the group 3,5-dioxocyclohexane carboxylic acid will interact with sulfenic acid cross-linking forms a CS covalent bond, so that the probe molecule is firmly connected to the macromolecular protein in the tumor cell, thereby prolonging the residence time of the molecular probe in the tumor cell, and improving the imaging effect of the probe molecule.
Based on the method described in Example 2, 4T1 cells were seeded in a confocal small dish, 1.5×10^4 cells per well, and placed in an incubator for 24 hours. After diluting hydrogen peroxide to 100 μM with cell culture medium, it was added to a culture dish of 4T1 cells and incubated for 15 minutes, and then the culture medium was discarded. The H2O2 responsive NIR molecular probe prepared in Example 1 was diluted with a culture medium to a concentration of 5 μM, and then added to the 4T1 cell culture dish, and placed in a cell incubator for 8 hours. After incubation of the probe and 4T1 cell, added new cell culture medium and continue culturing in the incubator for 4h, 8h, 12h and 24h. Then stained the nucleus with Hoechst33342 dye solution, and observed the fluorescence in 4T1 cells at different times after hydrogen peroxide treatment with a laser confocal microscope. The fluorescent probe (TC) without 3,5-dioxocyclohexane carboxylic acid was used as a control example, and a unified experimental method was adopted.

[6] = tested on: 4T1 cells; assay: Immunofluorescence of the probes in hydrogen peroxide treated 4T1 cells after re-culturing for 12 hours; format: cell-based, mouse; details: 100 μM H2O2 15 min, 5 μM probe 8 h, re-culture 12 hours
Method: Based on the method described in Example 2, 4T1 cells were seeded in a confocal small dish, 1.5×10^4 cells per well, and placed in an incubator for 24 hours. After diluting hydrogen peroxide to 100 μM with cell culture medium, it was added to a culture dish of 4T1 cells and incubated for 15 minutes, and then the culture medium was discarded. The H2O2 responsive NIR molecular probe prepared in Example 1 was diluted with a culture medium to a concentration of 5 μM, and then added to a 4T1 cell culture dish, and placed in a cell incubator for 8 hours. After the incubation time of the probe and 4T1 cells is over, add new cell culture medium and continue culturing in the incubator for 12 hours. Subsequently, the cells were fixed with 4% paraformaldehyde at room temperature for 15 minutes, and then washed with PBS; secondly, 0.5% Trition-100 and 4T1 cells were incubated at room temperature for 5 minutes; the antibody anticysteine sulfenic acid was incubated at room temperature. After 1 hour, the antibody was washed with PBS, and then incubated at 37° C. for 30 minutes with goat anti-rabbit-Cy3. Finally, the nucleus was stained with Hoechst 33342 staining solution. […] The fluorescent probe (TC) without 3,5-dioxocyclohexane carboxylic acid was used as a control, and a unified experimental method was adopted.

With `C[N+]1=C(/C=C/C=C/C=C2/N(CCCCCC(=O)NCCCn3cc(CNC(=O)[C@H](CCCCNC(=O)C4CC(=O)CC(=O)C4)NC(=O)CCC[P+](c4ccccc4)(c4ccccc4)c4ccccc4)nn3)c3ccc(S(=O)(=O)O)cc3C2(C)C)C(C)(C)c2cc(S(=O)(=O)O)ccc21` [DATC] the “killing effect on the cells as the concentration increases” value [1] was “no killing effect on the cells”, the “duration of the fluorescent signal at the tumor site” value [2] was 36 h and the “fluorescence signal of the probe at the tumor site at 2h” value ([2]; 2h) was “only slightly decreased”. For the same compound, the “fluorescence signal of the probe at the tumor site at 12h” value ([2]; 12h) was “obvious fluorescence signal”, the “co-localization of the probe with mitochondria” value [3] was “basically coincide” and the max absorption peak ([4]; UV absorption spectrum) was 646 nm. The maximum emission ([4]; fluorescence spectrum) was 670 nm, the “red fluorescence intensity in 4T1 cells 8 hours after washing off the probe, versus control probe” value ([5]; 100 μM H2O2 15 min, 5 μM probe 8 h, re-culture 8 h) was “significantly stronger” and the “fluorescence signal in 4T1 cells 24h later” value ([5]; 100 μM H2O2 15 min, 5 μM probe 8 h, re-culture 24 h) was “strong fluorescence signal”. The “time the probe can stay in the cell” value ([5]; fluorescence quantitative data, H2O2-treated 4T1 cells, 5 μM probe) was no less than 24 h and the “content / fluorescent signal of probe in cells” value [6] was “relatively high”.
